{"source": "ChEMBL document CHEMBL1135763", "about": "“Discovery of aminothiazole inhibitors of cyclin-dependent kinase 2: synthesis, X-ray crystallographic analysis, and biological activities” (J Med Chem, 2002)", "key": {"[1]": {"system": "A2780", "assay": "[…] antitumor activity against A2780 human ovarian carcinoma at 7.5 mg/kg i.p. /qd x7", "type": "functional", "conditions": "route intraperitoneal"}, "[2]": {"assay": "At a dose 50 mg/kg (114 umol/kg) was administered intraperitoneally to mice and was evaluated for Cmax", "type": "ADME, organism-based", "parameters": "dose 50 mg/kg, route intraperitoneal", "conditions": "mouse, in vivo, ip"}, "[3]": {"system": "HS27", "assay": "Inhibition of Hs 27 human fibroblast cell proliferation", "type": "functional, cell-based"}, "[4]": {"molecular_target": "Cyclin-dependent kinase 4/cyclin D1 (Homo sapiens, UniProt P11802)", "sequence (P11802 whole entry)": "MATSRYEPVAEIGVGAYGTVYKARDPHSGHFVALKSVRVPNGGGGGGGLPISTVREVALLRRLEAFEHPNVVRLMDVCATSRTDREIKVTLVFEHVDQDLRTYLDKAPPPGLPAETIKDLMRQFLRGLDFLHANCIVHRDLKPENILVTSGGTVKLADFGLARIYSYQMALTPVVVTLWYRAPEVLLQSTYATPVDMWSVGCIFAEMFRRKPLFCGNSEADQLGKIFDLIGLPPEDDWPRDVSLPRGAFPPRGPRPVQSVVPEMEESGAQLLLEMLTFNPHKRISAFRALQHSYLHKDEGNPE", "sequence (P24385 whole entry, further chain)": "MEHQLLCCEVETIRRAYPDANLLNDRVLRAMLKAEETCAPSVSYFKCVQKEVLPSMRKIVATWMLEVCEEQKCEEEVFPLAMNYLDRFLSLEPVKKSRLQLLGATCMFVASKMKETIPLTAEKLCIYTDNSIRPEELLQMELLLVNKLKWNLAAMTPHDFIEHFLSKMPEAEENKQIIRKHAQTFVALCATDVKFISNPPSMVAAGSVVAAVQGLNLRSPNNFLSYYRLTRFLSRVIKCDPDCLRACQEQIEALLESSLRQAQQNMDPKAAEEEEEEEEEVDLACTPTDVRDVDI", "assay": "Inhibitory activity against baculovirus expressed Cyclin dependent kinase 4-cyclinD1", "type": "protein-complex assay"}, "[5]": {"molecular_target": "Cyclin-dependent kinase 2 (Homo sapiens) (UniProt P24941)", "assay": "Apoptotic A2780 cells after 24 hr r at 29 nM (IC90)", "type": "functional, cell-based"}, "[6]": {"molecular_target": "Cyclin-dependent kinase 2/cyclin E (Homo sapiens, UniProt P24941)", "assay": "Inhibitory activity against baculovirus expressed Cyclin dependent kinase 2-cyclinE", "type": "protein-complex assay"}, "[7]": {"species": "Homo sapiens", "assay": "Percent of serum binding in human", "type": "functional"}, "[8]": {"assay": "At a dose 50 mg/kg (114 umol/kg) was administered intraperitoneally to mice and was evaluated for MRT", "type": "ADME, organism-based", "parameters": "dose 50 mg/kg, route intraperitoneal", "conditions": "mouse, in vivo, ip"}, "[9]": {"system": "MLF", "assay": "Inhibition of MLF mouse lung fibroblast cell proliferation", "type": "functional, cell-based"}, "[10]": {"molecular_target": "Cyclin-dependent kinase 2 (Homo sapiens) (UniProt P24941)", "assay": "Percentage A2780 cells in G1 after 24 hr r at 5 nM (IC50)", "type": "functional, cell-based"}, "[11]": {"molecular_target": "Cyclin-dependent kinase 2 (Homo sapiens) (UniProt P24941)", "assay": "Percentage A2780 cells in S-phase after 24 hr r at 5 nM (IC50)", "type": "functional, cell-based"}, "[12]": {"molecular_target": "Cyclin-dependent kinase 1/cyclin B (Homo sapiens, UniProt P06493)", "assay": "Inhibitory activity against baculovirus expressed Cyclin dependent kinase 1-cyclinB", "type": "protein-complex assay"}, "[13]": {"assay": "At a dose 50 mg/kg (114 umol/kg) was administered intraperitoneally to mice and was evaluated for half life (T1/2)", "type": "ADME, organism-based", "parameters": "dose 50 mg/kg, route intraperitoneal", "conditions": "mouse, in vivo, ip"}, "[14]": {"system": "Mus musculus", "assay": "At a dose 50 mg/kg (114 umol/kg) was administered intraperitoneally to mice and was evaluated for area under curve (AUCtot)", "type": "ADME, organism-based", "parameters": "time AUCmax, dose 50 mg/kg, route intraperitoneal", "conditions": "in vivo, ip"}, "[15]": {"molecular_target": "Cyclin-dependent kinase 2 (Homo sapiens) (UniProt P24941)", "assay": "Percentage A2780 cells in S-phase after 24 hr r at 29 nM (IC90)", "type": "functional, cell-based"}, "[16]": {"molecular_target": "Cyclin-dependent kinase 2 (Homo sapiens) (UniProt P24941)", "assay": "Apoptotic A2780 cells after 24 hr r at 5 nM (IC50)", "type": "functional, cell-based"}, "[17]": {"system": "A2780", "assay": "cells", "conditions": "Homo sapiens", "description": "Cytotoxic activity against A2780 human ovarian carcinoma cell line"}, "[18]": {"molecular_target": "Cyclin-dependent kinase 2 (Homo sapiens) (UniProt P24941)", "assay": "Percentage A2780 cells in sub-G1 after 24 hr r at 29 nM (IC90)"}, "[19]": {"molecular_target": "Cyclin-dependent kinase 2 (Homo sapiens) (UniProt P24941)", "assay": "Percentage A2780 cells in G1 after 24 hr r at 29 nM (IC90)", "type": "functional, cell-based"}, "[20]": {"system": "M109", "assay": "Inhibition of M109 mouse lung carcinoma cell proliferation", "type": "functional, cell-based"}, "[21]": {"molecular_target": "Cyclin-dependent kinase 2 (Homo sapiens) (UniProt P24941)", "assay": "Percentage A2780 cells in sub-G1 after 24 hr r at 5 nM (IC50)", "type": "functional, cell-based"}, "[22]": {"molecular_target": "Cyclin-dependent kinase 2 (Homo sapiens) (UniProt P24941)", "assay": "Percentage A2780 cells in G2/M after 24 hr r at 5 nM (IC50)", "type": "functional, cell-based"}, "[23]": {"system": "P388", "assay": "[…] antitumor activity against P388 murine leukemia at 7.5 mg/kg i.p. /qd x7 and %T/C", "type": "functional, Mus musculus", "conditions": "route intraperitoneal"}, "[24]": {"molecular_target": "Cyclin-dependent kinase 2 (Homo sapiens) (UniProt P24941)", "assay": "Percentage A2780 cells in G2/M after 24 hr r at 29 nM (IC90)", "type": "functional, cell-based"}, "[25]": {"assay": "At a dose 50 mg/kg (114 umol/kg) was administered intraperitoneally to mice and was evaluated for T max", "type": "ADME, organism-based", "parameters": "dose 50 mg/kg, route intraperitoneal", "conditions": "mouse, in vivo, ip"}, "[26]": {"molecular_target": "cAMP-dependent protein kinase (PKA) (Homo sapiens, UniProt P22694+P17612+P22612)", "assay": "Inhibition of Protein kinase A (PKA)", "type": "protein assay"}, "[27]": {"molecular_target": "Protein kinase C (PKC)", "assay": "Inhibition of Protein kinase C", "type": "protein assay"}}, "data": [{"smiles": "CCc1cnc(CSc2cnc(NC(=O)Cc3cccnc3)s2)o1", "values": [{"measurement": "LCK", "setting": "[1]", "result": 0.4}, {"measurement": "Cmax", "setting": "[2]", "result": 40, "unit": "µM"}, {"measurement": "IC50", "setting": "[3]", "result": 860, "unit": "nM"}, {"measurement": "IC50", "setting": "[4]", "result": 1090, "unit": "nM"}, {"measurement": "Cell cycle", "setting": "[5]", "result": 69, "unit": "%"}, {"measurement": "IC50", "setting": "[6]", "result": 5, "unit": "nM"}, {"measurement": "Activity", "setting": "[7]", "result": 82, "unit": "%"}, {"measurement": "MRT", "setting": "[8]", "result": 48, "unit": "min"}, {"measurement": "IC50", "setting": "[9]", "result": 1860, "unit": "nM"}, {"measurement": "Cell cycle", "setting": "[10]", "result": 71, "unit": "%"}, {"measurement": "Cell cycle", "setting": "[11]", "result": 7, "unit": "%"}, {"measurement": "IC50", "setting": "[12]", "result": 80, "unit": "nM"}, {"measurement": "half-life", "setting": "[13]", "result": 66, "unit": "min"}, {"measurement": "AUC", "setting": "[14]", "result": 23, "unit": "µM·h"}, {"measurement": "Cell cycle", "setting": "[15]", "result": 7, "unit": "%"}, {"measurement": "Cell cycle", "setting": "[16]", "result": 4, "unit": "%"}, {"measurement": "IC50", "setting": "[17]", "result": 240, "unit": "nM"}, {"measurement": "Cell cycle", "setting": "[18]", "result": 25, "unit": "%"}, {"measurement": "Cell cycle", "setting": "[19]", "result": 50, "unit": "%"}, {"measurement": "IC50", "setting": "[20]", "result": 2100, "unit": "nM"}, {"measurement": "Cell cycle", "setting": "[21]", "result": 2, "unit": "%"}, {"measurement": "Cell cycle", "setting": "[22]", "result": 20, "unit": "%"}, {"measurement": "T/C", "setting": "[23]", "result": 115, "unit": "%"}, {"measurement": "Cell cycle", "setting": "[24]", "result": 18, "unit": "%"}, {"measurement": "Tmax", "setting": "[25]", "result": 30, "unit": "min"}]}, {"smiles": "CCOC(=O)CSc1cnc(NC(C)=O)s1", "values": [{"measurement": "IC50", "setting": "[4]", "result": 23000, "unit": "nM"}, {"measurement": "IC50", "setting": "[6]", "result": 170, "unit": "nM"}, {"measurement": "IC50", "setting": "[26]", "result": "> 50000", "unit": "nM"}, {"measurement": "IC50", "setting": "[12]", "result": 1870, "unit": "nM"}, {"measurement": "IC50", "setting": "[27]", "result": "> 50000", "unit": "nM"}]}]}
